Numbers after ± are expanded uncertainties.
Columns and labels:
[1] = refractive index (Na D-line) (dimensionless); settings: 293.2 K; 101.33 kPa; Liquid; Standard Abbe refractometry
[2] = 293.2 K; 101.33 kPa; Liquid; Vibrating tube method

| Compound | refractive index [1] | mass density [2] |
| --- | --- | --- |
| CCCCCCCO [heptan-1-ol] | 1.4244 ± 0.0005 | 821.63 ± 0.26 kg/m3 |
| O [water] | 1.3328 ± 0.0005 |  |
| CCCCCCO [hexan-1-ol] | 1.4181 ± 0.0005 | 818.21 ± 0.26 kg/m3 |

Further lines, results first:

| refractive index [1] | mass density [2] | Compound |
| --- | --- | --- |
| 1.41 ± 0.0005 | 813.98 ± 0.26 kg/m3 | CCCCCO [pentan-1-ol] |
| 1.3983 ± 0.0005 | 809.33 ± 0.26 kg/m3 | CCCCO [butan-1-ol] |
| 1.3711 ± 0.0005 | 1219.5 ± 0.4 kg/m3 | O=CO [formic acid] |

From the NIST ThermoML archive (doi:10.1016/j.fluid.2013.06.006)
